We go through 95 compounds from ChEMBL document CHEMBL3507680, “University of Dundee, Gates Library screen for HepG2 cell viability”.

This series can be described thus: Human HepG2 cell viability assay in 384 well format. The format is toxicity, cell-based. Further details: dose 125 nL, time 70.5 hour; concentration not given beside the values. The conditions noted are these: HepG2 cells, read-out: Inhibition.

`COc1ccc(S(=O)(=O)N2CCOC(Cn3ccnc3)C2)cc1` (stereo not given): the cytotoxicity at 70.5 h was -8.46%.

With `CC(=O)c1ccc(S(=O)(=O)N2CCOC(Cn3ccnc3)C2)cc1` (stereo not given), the cytotoxicity at 70.5 h is -7.46%. Turning to `O=C(c1ccco1)N1CCC2(CCC(=O)N2Cc2cccc(F)c2)CC1`, the cytotoxicity at 70.5 h was -15.7%. In the case of `COCCN1CC[C@]2(CN(C(=O)c3cccs3)C[C@H]2C)C1=O` it was -10.6%. Regarding `Cc1occc1C(=O)N1CCC2(CCC(C(=O)NCC3CC3)O2)CC1` (stereo not given), the cytotoxicity at 70.5 h is -12.7%. For `COCCO[C@H]1CCN(C(=O)c2cc(C)on2)[C@H]1Cc1ccccc1` the value was 0.559%; for `CC[C@H]1NCCC[C@]12CCC(=O)N2Cc1ccncc1`, -0.708%; for `O=C(c1ccnnc1)N1CCC2(CC1)CC(N1CCOCC1)C2`, 33.7%. For `O=C(C1CC1)N1CC[C@H](O)[C@@H]1Cc1ccccc1` the value was -3.79%; for `CC(C)C(=O)N1CCC2(CCCN(CCOc3ccccc3)C2)C1` (stereo not given), -8.26%; for `c1ccc(N2CCCC3(CCN(Cc4nccs4)C3)C2)nc1` (stereo not given), 6.32%. In the case of `CN(C)C(=O)CC1CC2(CCN(C(=O)N(C)C)CC2)Oc2ccccc21` (stereo not given) it was -11.4%; in that of `CNC(=O)[C@@]12CCC3(CCN(C(C)=O)CC3)[C@@H]1CN(S(C)(=O)=O)C2`, -4.49%. As to `CNC(=O)c1cc2c(nc1NCC(C)C)CCN(S(=O)(=O)C1CC1)CC2`, the cytotoxicity at 70.5 h is -6.3%.

Consider `COCC1c2nnn(CC3CC3)c2CCN1C(=O)c1cccc(F)c1` (stereo not given), for which the cytotoxicity at 70.5 h is -6.77%. For `CCOCC1CN(S(C)(=O)=O)Cc2ncn(CC3CC3)c21` (stereo not given) the value was 3.76%. As to `CCS(=O)(=O)N1CC[C@]2(C[C@@H](OCC3CC3)CO2)C1`, the cytotoxicity at 70.5 h is -8.16%. For `O=C(NCc1cnc2n1CCN(CC1CC1)CC2)C1CCC1` the value was -8.49%; for `CCc1ccccc1NC(=O)N1CCn2cnc(COC)c2C1`, -7.61%; for `CCc1noc(CCC(=O)N2CCC(c3ccn[nH]3)C2)n1` (stereo not given), 17.8%. In the case of `Cc1nc(CN2CCCC(c3nccs3)C2)cs1` (stereo not given) it was -0.693%. In the case of `CNc1cccc(CC2COCCN(C(=O)c3cnn(C)c3)C2)n1` (stereo not given) it was -0.46%; in that of `CC(=O)N1CCC1c1cc(NC2CCOCC2)nc(C)n1` (stereo not given), -0.759%. For `c1cncc(CN2CCC(c3ccnc4nccn34)C2)c1` (stereo not given), the cytotoxicity at 70.5 h was -1.1%. For `CC(C)(C)c1cc(C(=O)N2CCOC(c3cnccn3)C2)[nH]n1` (stereo not given) the value was 0.63%. As to `CC(=O)N1CCC(C)(c2cc(C(=O)NCC3CC3)nc(C)n2)CC1`, the cytotoxicity at 70.5 h was -1.84%. With `CCCNC(=O)C1(Cc2cc(-c3ccccc3)no2)CCN(C(C)=O)C1` (stereo not given), the cytotoxicity at 70.5 h stood at 3.68%. For `CC(=O)NC1CCc2ccc(S(=O)(=O)NCc3ncccc3C)cc21` (stereo not given) the value was 39.1%.

For `Cc1nc(Nc2nccs2)cc(C2CN(C(C)C)C2)n1`, the cytotoxicity at 70.5 h was -5.94%. In the case of `Cc1nnc(N2CCOC(C)(C(=O)N(C)C)C2)c2ccccc12` (stereo not given) it was -8.96%; in that of `O=C(O)[C@H]1OCC(=O)N(Cc2cccc(Cl)c2)[C@@H]1c1ccccc1`, -6.12%. For `Cc1cc(C)n(-c2nc(C(=O)NCCN3CCC(C)CC3)cs2)n1` the value was -5.84%; for `O=C(NCC1CCCO1)c1cc(-c2cccnc2)c2cnccc2n1` (stereo not given), -3.09%; for `O=C(O)[C@H]1OCC(=O)N(Cc2cccc(F)c2)[C@@H]1c1ccc(Cl)cc1`, -9.16%.

Turning to `CS(=O)(=O)N1CC(c2ccnc(Nc3ccccn3)n2)C1`, the cytotoxicity at 70.5 h is -3.95%. Take `NC(=O)C1CN(C(=O)c2ccc(F)cc2)CCN1CCc1ccccc1` (stereo not given): the cytotoxicity at 70.5 h was -4.6%. For `CCc1nc(C)cc(N2CCN(C(=O)[C@@H]3C[C@@H]4C=C[C@H]3C4)CC2)n1`, the cytotoxicity at 70.5 h was -7.28%.

For `Cn1ccnc1-c1nc(NC2CCCC2)ncc1-c1cccc(F)c1`, the cytotoxicity at 70.5 h is 0.205%. In the case of `CNC(=O)C1CN(c2ncccn2)CCN1Cc1ccccc1` (stereo not given) it was -3.64%; in that of `CNC(=O)C1CN(C)CCN1c1nc(C)cc(C)n1` (stereo not given), 14.1%; in that of `CN(C)c1nccc(C2CCCCN2Cc2cnn3cccnc23)n1` (stereo not given), -7.45%. In the case of `O=c1[nH]cc(N2CCOCC2)c(=O)[nH]1` it was -0.0513%.

Turning to `Cc1nc(N2CCOCC2)sc1C(=O)NCC(C)(C)N1CCCCC1`, the cytotoxicity at 70.5 h is -2%. Consider `CCN(CC)C1CCN(C(=O)c2cc(-n3cccn3)ccc2Cl)CC1`, for which the cytotoxicity at 70.5 h is -0.746%. On to `CC(C)(C)C(=O)N1CCCc2c(cnn2-c2ccccc2)C1`, for which the cytotoxicity at 70.5 h was 1.62%. In the case of `O=S(=O)(c1ccccc1)N1CCOC(Cn2ccnc2)C1` (stereo not given) it was -6.05%. In the case of `OC1(CN2CCC(Cc3ncccn3)CC2)CCCCC1` it was -5.56%. For `CC(C)N1CCN(C)CC(Cc2cc(N(C)C)ncn2)C1` (stereo not given) the value was -3.36%.

Regarding `Cn1nc(C2CCN(C(=O)c3cnccn3)C2)cc1CCO` (stereo not given), the cytotoxicity at 70.5 h is -2.35%. In the case of `Cc1c[nH]nc1C1CCCN1Cc1ccncc1` (stereo not given) it was -4.73%; in that of `Cc1cccc(CNC(=O)CC2CCN(Cc3ccccn3)CC2)n1`, -1.17%; in that of `Cn1cc(CN2CCCCC2c2ccc(-c3cccc(F)c3)nc2)cn1` (stereo not given), -1.71%. For `Cc1cc(C(=O)N2CCC(O)(Cn3ccc4ccncc43)CC2)on1` the value was 17.8%.

`Cc1cc2ccncc2n1CC1(O)CCN(C(=O)c2ccncc2)CC1`: the cytotoxicity at 70.5 h is -1.76%.

In the case of `O=C(NCc1ccccc1)NCc1nc(-c2ccncc2)n[nH]1`, the cytotoxicity at 70.5 h was -3.14%. Turning to `CN1C[C@@H](C(=O)NC(C)(C)C)[C@@]2(CCc3ccccc3C(=O)N2)C1`, the cytotoxicity at 70.5 h worked out at 0.823%. In the case of `CN1C[C@@H](C(=O)NCC(F)(F)F)[C@@]2(CCc3ccccc3C(=O)N2)C1` it was 3.97%; in that of `CS(=O)(=O)NC1(CCc2ccc(NC(=O)C3CC3)nc2)CCCCC1`, 15%; in that of `Cc1csc2c(C3CCCN(C(=O)Cn4cncn4)C3)nc(C)n12` (stereo not given), -1.76%.

As to `CC(C(N)=O)n1nc(-c2cccs2)cc(N)c1=O` (stereo not given), the cytotoxicity at 70.5 h was -3.21%. For `COc1cccc(CN2CCCCC2c2n[nH]cc2-c2cc(C)no2)c1` (stereo not given) the value was -3.89%; for `Cc1cc(-c2nccs2)nc(C2CCN(Cc3ccc(F)cc3)CC2)n1`, -2%; for `CCn1cc(-c2cncn2CCc2ccc3c(c2)OCCO3)cn1`, 19.5%.

For the compound `Cn1cc(CN(Cc2ccccc2)Cc2ccccn2)cn1`, the cytotoxicity at 70.5 h came to 18%. In the case of `Cc1ncccc1-c1cc2cccnc2n1CCCNC(=O)C1CC1` it was 1.77%. In the case of `NC[C@H]1[C@H]2CN(Cc3ccccc3)C[C@@H]12` it was 0.818%.

On to `Cc1cccc(CN2CCc3nnc(CN4CCCC4=O)n3CC2)n1`, for which the cytotoxicity at 70.5 h was -16.9%. For `COCCC(=O)N1C[C@H]2CN(Cc3cccc(C)n3)C(=O)[C@H]2C1` the value was -11.1%; for `COc1ccc(CN2CCC3(CC2)CCN(CC(C)C)C3=O)cc1`, -10.6%; for `O=C(N1CCCC1)N1CCC2(CCCN(CCOc3ccccc3)C2)C1` (stereo not given), 26.5%. For `O=C(CC1CCCC1)N1C[C@@H]2CCN(c3cccnc3)C[C@@H]2C1` the value was -7.38%; for `c1cnc(N2CCC3(CC2)CN(CC2CC2)c2ccccc23)nc1`, 12.1%; for `O=C1COC2(CCN(C(=O)c3ccco3)CC2)CN1Cc1cccnc1`, -8.01%. For `Cc1noc(C)c1CN1CCCC2(CCN(C(=O)NC3CC3)C2)C1` (stereo not given) the value was 1.02%; for `CN(C)C(=O)CN1C(=O)CCC12CCN(Cc1cccn1C)CC2`, 0.746%. For the compound `C[C@@H]1C(=O)NC[C@H]2CN(Cc3ccsc3)C[C@H]21`, the cytotoxicity at 70.5 h was -2.8%. In the case of `C[C@@H]1C(=O)NC[C@H]2CN(CCc3ccccc3)C[C@H]21` it was -0.303%. For `O=C1COC2(CCN(C(=O)c3ccco3)CC2)CN1Cc1ccccn1` the value was -1.65%. For `O=C(CC1CC1)N1C[C@@H]2CCN(c3cnccn3)C[C@@H]2C1` the value was 4.03%.

As to `CN1CC2(CCN(Cc3ccoc3)CC2)COc2ccccc2S1(=O)=O`, the cytotoxicity at 70.5 h was -12.1%. For `CNC(=O)c1ccc2c(c1)C1(CCN(CC(C)C)CC1)C(=O)N2` the value was -10.5%. With `CC(C)CN1CCC2(CC1)C(=O)Nc1ccc(C(=O)N(C)C)cc12`, the cytotoxicity at 70.5 h was -10.1%. As to `Cc1noc(C)c1CN1C[C@H](OCC2CC2)[C@H]2OCCC[C@H]21`, the cytotoxicity at 70.5 h was -9.93%.

For the compound `O=C([C@@H]1CC[C@@H]2[C@@H](CCN2Cc2ccoc2)O1)N1CCCC1`, the cytotoxicity at 70.5 h is -11.4%. For `CC(C)c1ccc(CN2CCC3(CCCN(c4nncs4)C3)C2)cc1` (stereo not given) the value was -4.12%; for `CN1[C@H](CN2CCCC2)C[C@@H]2CN(C(=O)Cc3cccs3)CC[C@@H]21`, 27.9%; for `CC(=O)N1CCN(Cc2ccccn2)CC2(CC(=O)N(C)C2)C1` (stereo not given), 0.971%. For `CNC(=O)[C@@H]1C[C@H]2CN(Cc3nccs3)C[C@H]2N1C` the value was 6.13%; for `CN(C)CCOCC1CN(CC2CCOCC2)Cc2nnn(C)c21` (stereo not given), -6.51%. For `COCCN1CCc2cc(C(=O)N(C)C)c(NC(C)C)nc2CC1` the value was -8.98%; for `Fc1cccnc1OC[C@@]12CCO[C@@H]1CCN(CC1CCOCC1)C2`, -9.65%; for `COCCO[C@H]1CCN(Cc2cccs2)[C@H]1Cc1cccnc1`, -8.35%.

With `Cc1cccc(CN2CC[C@H]3[C@H]2CCN3Cc2cnn(C)c2)n1`, the cytotoxicity at 70.5 h was 30.5%. In the case of `CN(C)CCN1CCO[C@H]2CN(Cc3cnn(C)c3)C[C@H]21` it was -7.82%; in that of `COc1ccc(CN(Cc2ccccn2)Cc2cncn2C)cc1`, -1.37%.
